Results as given in patent US6979664B1, “Composition for accelerating seed germination and plant growth” (Bios Agriculture Inc., priority 1998, dated 2005).

Legend:
Format in all cases: in vivo
Beet = assay: seedling emergence under field condition; details: six days after planting
Description: (§1) Seeds were surface sterilized with 2% sodium hypochlorite and soaked in different concentrations (10^−5, 10^−7, 10^−9M) of LCO solution for 12 h. Water served as the control. The study was conducted at the experimental field of the Macdonald campus of McGill University, Ste-Anne-de-Belleveue. Quebec, Canada. The field was ploughed to a fine tilth, seeds were hand planted in 1 m rows at 2.5 to 3 cm deep with three replications per treatment. […] The data was analyzed for significance by an ANOVA protected LSD test using SAS system Version 6.1 (SAS Inc., Cary, N.C., USA).

Cotton = assay: seedling emergence under field condition; details: for seedling emergence under field condition: Cotton, six days after planting
Description: as §1

Corn = assay: seedling emergence under field condition; details: six days after planting
Description: as §1

Soybean = assay: seedling emergence under field condition; details: six days after planting
Description: as §1

Cucumis sativus = assay: seedling emergence at 15° C.
Excerpt: (§2) Plastic pots (7.5 cm dia) were filled with 15 g of autoclaved vermiculite. Seeds of corn (Zea mays—Poaceae), bean (Phaseolus vulgaris—Fabaceae), canola (Brassica napus—Brassicaceae), cucumber (Cucumis sativus—Cucurbitaceae), cantaloupe (Cucumis melo—Cucurbitaceae), cotton (Gossypium sp.—Malvaceae), lettuce (Lactuca sativa—Asteraceae), beet (Beta vulgaris—Chenopodiaceae), and soybean (Glycine max—Fabaceae), were placed at 2.5 cm deep at the rate of 5 or 10 seeds per pot. Pots were irrigated with either 25 mL of LCO solution at different concentrations (10^−6–10^−14M) or aqueous acetonitrile or water, as controls. Acetonitrile was included as one of the controls since LCO was purified in this solvent (see Example 3), after 4 days the pots were irrigated with 10 mL of water once every two days. Each treatment had 4 replications in a randomized block design. Pots were placed on a green house bench maintained at 25±2° C. with a day/night cycle 16/8 h and relative humidity of 70%, or in a growth chamber set at 15° C. with a 16:8 day/night cycle. […] As defined above, seedling emergence has occurred when growth of the plant can be observed above the rooting medium surface. The percent emergence was calculated. The data were analyzed with Statistical Analysis System, version 6.12 (SAS institute Inc. Cary, N.C., USA).

Brassica napus = assay: seedling emergence at 15° C.
Excerpt: as §2

corn (Zea mays L.) = assay: germination of corn after 72 h of treatment (petri plate); details: 25° C.
Description: Seeds of corn (cv Pioneer 3921) were surface sterilized in 2% sodium hypochlorite solution for 2 minutes and placed in 9 cm diameter Petri plates containing a sheet of filter paper soaked in 10 ml of the required test solution (LCO 10^−5–10^−13). Water served as the control. Observations on germination, length of root primodia and shoot were taken after 72 h of incubation at 25° C. The data was analyzed for significance by an ANOVA protected LSD test using SAS system Version 6.1 (SAS Inc., Cary, N.C., USA).

In the case of `CCCCCCC=CCCCCCCCCCC(=O)NC1C(OC2C(CO)OC(OC3C(CO)OC(OC4C(CO)OC(OC5C(COC6OC(C)C(O)C(O)C6OC)OC(O)C(NC(C)=O)C5O)C(NC(C)=O)C4O)C(NC(C)=O)C3O)C(NC(C)=O)C2O)OC(CO)C(O)C1O` (stereo not shown) [LCO, NodBj-V(C18:1Δ11)], the “seedling emergence under field condition” value (Beet; 10^−7 M seed soak 12 h) is reported as 46.6 c, the “seedling emergence under field condition” value (Beet; LCO 10^−5 M seed soak 12 h) is reported as 28.3 a and the “seedling emergence under field condition” value (Beet; LCO 10^−9 M seed soak 12 h) is reported as 38.3 ab. The “seedling emergence under field condition” value (Cotton; 10^−7 M seed soak 12 h) was 60.0 b, the “seedling emergence under field condition” value (Cotton; LCO 10^−5 M seed soak 12 h) was 16.6 a and the “seedling emergence under field condition” value (Cotton; LCO 10^−9 M seed soak 12 h) was 23.3 a. For the same compound, the “improvement of emergence as compared to the control” value (Cotton; cotton, LCO at 10^−7M, field) was “more than 9 times”, the “seedling emergence under field condition” value (Corn; 10^−7 M seed soak 12 h) was 60.0 b and the “seedling emergence under field condition” value (Corn; LCO 10^−5 M seed soak 12 h) was 80.0 b. The “seedling emergence under field condition” value (Corn; LCO 10^−9 M seed soak 12 h) was 53.3 b, the “seedling emergence under field condition” value (Soybean; 10^−7 M seed soak 12 h) was 33.3 b and the “seedling emergence under field condition” value (Soybean; LCO 10^−5 M seed soak 12 h) was 26.6 ab. The “seedling emergence under field condition” value (Soybean; LCO 10^−9 M seed soak 12 h) was 63.3 c, the seedling emergence (Cucumis sativus; 10^−6M) was 65 abc and the seedling emergence (Cucumis sativus; 10^−7M) was 85 ab. For the same compound, the seedling emergence (Cucumis sativus; 10^−8M) was 80 ab, the seedling emergence (Cucumis sativus; 10^−9M) was 70 abc and the seedling emergence (Cucumis sativus; 10^−10M) was 50 c. The seedling emergence (Cucumis sativus; 10^−11M) was 80 ab, the seedling emergence (Cucumis sativus; 10^−12M) was 80 ab and the seedling emergence (Cucumis sativus; 10^−13M) was 70 abc. The seedling emergence (Cucumis sativus; 10^−14M) was 70 abc, the seedling emergence (Brassica napus; 10^−6M) was 35 bc and the seedling emergence (Brassica napus; 10^−7M) was 32 c. The seedling emergence (Brassica napus; 10^−8M) was 35 bc, the seedling emergence (Brassica napus; 10^−9M) was 52 ab and the seedling emergence (Brassica napus; 10^−10M) was 62 a. The seedling emergence (Brassica napus; 10^−11M) was 47 bc, the seedling emergence (Brassica napus; 10^−12M) was 45 bc and the seedling emergence (Brassica napus; 10^−13M) was 37 bc. The seedling emergence (Brassica napus; 10^−14M) was 30 c, the “Length of root primodia” value (corn (Zea mays L.); LCO 10^−5 M) was 53.0 ab mm and the “Length of shoot primodia” value (corn (Zea mays L.); LCO 10^−5 M) was 12.3 ab mm. For the same compound, the Percent germination (corn (Zea mays L.); LCO 10^−5 M) was 80 bc Percent, the “Length of root primodia” value (corn (Zea mays L.); LCO 10^−7 M) was 57.6 bc mm and the “Length of shoot primodia” value (corn (Zea mays L.); LCO 10^−7 M) was 15.0 ab mm. For the same compound, the Percent germination (corn (Zea mays L.); LCO 10^−7 M) was 73.3 b Percent, the “Length of root primodia” value (corn (Zea mays L.); LCO 10^−9 M) was 48.0 ab mm and the “Length of shoot primodia” value (corn (Zea mays L.); LCO 10^−9 M) was 9.6 a mm. The Percent germination (corn (Zea mays L.); LCO 10^−9 M) was 73.3 b Percent, the “Length of root primodia” value (corn (Zea mays L.); LCO 10^−11 M) was 78.6 c mm and the “Length of shoot primodia” value (corn (Zea mays L.); LCO 10^−11 M) was 21.0 b mm. For the same compound, the Percent germination (corn (Zea mays L.); LCO 10^−11 M) was 100 c Percent, the “Length of root primodia” value (corn (Zea mays L.); LCO 10^−13 M) was 43.0 bc mm and the “Length of shoot primodia” value (corn (Zea mays L.); LCO 10^−13 M) was 8.3 a mm. The Percent germination (corn (Zea mays L.); LCO 10^−13 M) was 80 bc Percent.
